Measured values: paper PMC7025332 (Journal of Medicinal Chemistry, 2020)

What was measured:
[1] = biological target: MDM2 (Homo sapiens, UniProt Q00987); test: Fluorescence polarization binding affinity; conditions: methyl to 4-chloro phenyl mutation
[2] = system: U2OS cells; test: p53-responsive luciferase reporter assay; type: cell-based; conditions: U2OS BP100-luc/CMV-lacZ, 30 μM, 18 h
[3] = Cellular functional assay; type: cell-based; conditions: data not shown
[4] = system: HCT-116 p53+/+ cells; test: MTT assay; type: cell-based; conditions: 200 μM, 48 h; for selectivity toward wild-type p53 cells versus p53-deletion cells: HCT-116 p53+/+ vs p53–/–; for suppression of proliferation of wild-type p53 cells: HCT-116 p53+/+
[5] = system: U2OS cells; test: Western blotting of p21, MDM2 and p53 expression; type: cell-based; conditions: 30 μM, 16 h

Chain of MDM2 (Q00987 1-150): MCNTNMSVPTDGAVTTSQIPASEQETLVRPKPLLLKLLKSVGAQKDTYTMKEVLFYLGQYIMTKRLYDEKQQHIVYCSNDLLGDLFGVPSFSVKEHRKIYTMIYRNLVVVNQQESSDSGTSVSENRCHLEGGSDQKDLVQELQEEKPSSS

improvement of Kd [1] | Compound | luciferase activity compared with p53 peptide [2] | activity in the cellular functional assay [3] | selectivity toward wild-type p53 cells versus p53-deletion cells [4] | suppression of proliferation of wild-type p53 cells [4] | MDM2 level [5] | p21 level ([5]; compared to control (PBS buffer))
∼fourfold improvement | CC(=O)N[C@@H](CC(C)C)CN(CC(=O)N[C@@H](Cc1ccccc1)CN(CC(=O)N[C@@H](CCC(=O)O)CN(CC(=O)N[C@@H](Cc1c[nH]c2ccccc12)CN(CC(=O)N[C@@H](CCCCN)CN(CC(=O)N[C@@H](CC(C)C)CN(CC(=O)N[C@@H](C)CN(CC(N)=O)S(C)(=O)=O)S(=O)(=O)CC(C)C)S(C)(=O)=O)S(C)(=O)=O)S(C)(=O)=O)S(C)(=O)=O)S(=O)(=O)c1ccc(Cl)cc1 [PS4] | marginally increased luciferase activity | none of them is active |  |  |  | 
 | CC(=O)N[C@@H](CC(C)C)CN(CC(=O)N[C@@H](Cc1ccccc1)CN(CC(=O)N[C@@H](CCC(=O)O)CN(CC(=O)N[C@@H](Cc1c[nH]c2ccccc12)CN(CC(=O)N[C@@H](CCCCN)CN(CC(=O)N[C@@H](CC1CCC1)CN(CC(=O)N[C@@H](C)CN(CC(N)=O)S(C)(=O)=O)S(=O)(=O)CC(C)C)S(C)(=O)=O)S(C)(=O)=O)S(C)(=O)=O)S(C)(=O)=O)S(=O)(=O)c1ccc(Cl)cc1 [PS10] | marginally increased luciferase activity | none of them is active | more selective toward wild-type p53 cells than p53-deletion cells | suppress proliferation of wild-type p53 cells more efficiently than the p53 peptides |  | 
 | CC(=O)N[C@@H](CC(C)C)CN(CC(=O)N[C@@H](Cc1ccccc1)CN(CC(=O)N[C@@H](CCC(=O)O)CN1CC(=O)N[C@@H](Cc2c[nH]c3ccccc23)CN(S(C)(=O)=O)CC(=O)N[C@@H](CCCCN)CN(CC(=O)N[C@@H](CC(C)C)CN(CC(=O)N[C@@H](C)CN(CC(N)=O)S(C)(=O)=O)S(=O)(=O)CC(C)C)S(=O)(=O)CC/C=C/CCCCS1(=O)=O)S(C)(=O)=O)S(=O)(=O)c1ccc(Cl)cc1 [PS12] |  |  |  |  | increased moderately | 
 | CC(=O)N[C@@H](CC(C)C)CN(CC(=O)N[C@@H](Cc1ccccc1)CN(CC(=O)N[C@@H](CCC(=O)O)CN1CC(=O)N[C@@H](Cc2c[nH]c3ccccc23)CN(S(C)(=O)=O)CC(=O)N[C@@H](CCCCN)CN(CC(=O)N[C@@H](CC(C)C)CN(CC(=O)N[C@@H](C)CN(CC(N)=O)S(C)(=O)=O)S(=O)(=O)CC(C)C)S(=O)(=O)CCCC/C=C\CCCCS1(=O)=O)S(C)(=O)=O)S(=O)(=O)c1ccc(Cl)cc1 [PS11] |  |  | more selective toward wild-type p53 cells than p53-deletion cells | suppress proliferation of wild-type p53 cells more efficiently than the p53 peptides | increased moderately | increased significantly
